Take `NS(=O)(=O)c1ccc(NC(=O)c2cc(F)ccc2SSc2ccc(F)cc2C(=O)Nc2ccc(S(N)(=O)=O)cc2)cc1`: the melting point (in general, the temperature of the solid-liquid transition) is more than 300 °C.

Molecule `COc1cc2c(cc1OC)CCCCC(C(=O)O)=C2` returned a melting point of 200 to 201 °C.

Turning to `CC(C)NCC(O)COc1ccc2c(=O)cc(-c3ccc(O)c(O)c3)oc2c1` (stereo not drawn), the melting point was 187 °C.

With `O=C(O)COc1ccc(C(=NO)c2ccccc2F)c(Cl)c1Cl`, the melting point lay in the range of 91 to 96 °C.

Turning to `O=C(CNc1ccccc1)N1CCC(Cc2ccccc2)CC1`, the melting point lay within 107 to 109 °C.

Molecule `Cc1cnnc2c1C(=O)CC(c1ccsc1)C2` (stereo not drawn) yielded a melting point of 125 to 126 °C.

For `CCC(=O)C(CC(=O)c1ccccc1)C(O)=S` (stereo not drawn), the melting point was 110 to 112 °C.

As to `CC(=O)OCC1=C(C(=O)O)N2C(=O)C(NC(=O)Cn3ccnc3S(C)=O)C2SC1` (stereo not drawn), the melting point was determined as 220 °C.

`CCCCCCCCCCCCCCOc1ccc(CN(C(=O)c2cccnc2)c2ccccc2)cc1` showed a melting point of 65 to 67 °C.

The molecule `CCCCOc1ccc(C(=O)Nc2ccc3cc(CN4CCCC4CC(C)C)cnc3c2C)cc1` (stereo not drawn) showed a melting point of 128 to 130 °C.

Regarding `CC(C)C(=O)C(=CC(=O)c1ccc(Cl)cc1)n1cncn1`, the melting point was 128 to 130 °C.

For the molecule `CCN1CC(=O)N(c2cc(F)ccc2C)C1=S`, the melting point was in the range of 98 to 100 °C.

Molecule `Cc1ncc(CN2CCc3ccccc3C2)c(N)n1` came in with a melting point of 150 to 153 °C.

`O=C1NCCC[C@@H]1NS(=O)(=O)c1ccc(C(F)(F)F)cc1` returned a melting point of 181 to 183 °C.

As for `CCOC(=O)c1ncc(Cl)cc1F`, the melting point lay in the range of 48 to 50 °C.

`CCNc1nc(NC2CC2)cc(SC)n1`: the melting point fell in the range of 75 to 76 °C.

For the molecule `COC(=O)CC1CCCC2CC(=O)N(OCC(=O)C(CC(=O)O)NC(=O)OCc3ccccc3)C12` (stereo not drawn), the melting point fell in the range of 55 to 58 °C.

In turn, `CN1CCC(c2cn(S(=O)(=O)c3ccccc3)c3ccc(OS(=O)(=O)c4ccccc4)cc23)CC1` came in with a melting point of 123 to 127 °C.

Consider `COc1ccc(OC(=O)C2CCCc3ccc([N+](=O)[O-])cc32)cc1` (stereo not drawn), for which the melting point was in the range of 109 to 110 °C.

In the case of `COc1ccc(-n2nc(C(O)c3ccccc3)cc2-c2ccc(C)cc2)cc1` (stereo not drawn), the melting point was in the range of 101 to 103 °C.

The molecule `COc1ccc2c(c1Cl)CCCC2=O` returned a melting point of 130 to 131 °C.

As for `C=C=Cn1c(C)c(C)c2cnnc(OCc3ccccc3)c21`, the melting point lay in the range of 77 to 79 °C.

For `c1ccc2c(c1)CNc1ccccc1S2`, the melting point is 145 to 148 °C.

As to `O=C1NC(c2ccccc2)N(CCN2CCN(c3ccccc3)CC2)c2ccccc21` (stereo not drawn), the melting point lay within 142 to 144 °C.

`CCOC(=O)C(=CC=C(O)C(=O)O)Sc1ccccc1` registered a melting point of 172 °C.

Turning to `COc1ccc(C2Sc3ccccc3NC(=O)C2CO)cc1` (stereo not drawn), the melting point turned out to be 217 °C.

On to `CC1(C)CC=C(Nc2ccccc2Cl)C(=O)C1`, for which the melting point fell in the range of 150 to 152 °C.

Molecule `CC(C)N1C(=O)[C@@H](CCCC(=O)O)O[C@H](c2ccccc2Cl)c2cc(Cl)ccc21` (relative stereo) returned a melting point of 158 to 160 °C.

For `COc1ccc(-c2nnn(-c3ccc(C(F)(F)F)cc3Cl)c2CBr)cc1`, the melting point fell in the range of 152 to 154 °C.

Molecule `CN1C(=O)Cn2cc(C(=O)NCc3ccc(Cl)cc3)c(=O)c3cc(CN4CCOCC4)cc1c32` came in with a melting point of 213 to 214 °C.

For `NS(=O)(=O)c1cccc(CCO)c1`, the melting point was 109 °C.

`CC12CC(N3CCC4(CC3)OCCO4)C(O)CC1CCC1C2CCC2(C)C(O)C(N3CCC(O)CC3)CC12` (stereo not drawn): the melting point is 253 to 255 °C.

On to `O=[N+]([O-])c1ccc2oc(CBr)cc2c1`, for which the melting point was in the range of 96 to 98 °C.

Regarding `COCC1CN(c2ccc(C3CCNCC3)cc2)C(=O)O1` (racemic), the melting point lay within 161 to 163 °C.

Molecule `CCCCCCCCCc1c(C(F)(F)F)noc1NS(=O)(=O)c1ccccc1` yielded a melting point of 102 °C.

The molecule `CCn1c(=O)c2[nH]c(/C=C/c3ccccc3F)nc2n(CC)c1=O` registered a melting point of more than 270 °C.

Molecule `O=C(OCc1nc(/C=C/c2cn(-c3ccccc3)nc2O)cs1)c1ccccc1` had a melting point of 215 to 216 °C.

For `O=C(O)Cc1csc(NC(=O)OCC(Cl)(Cl)Cl)n1`, the melting point amounted to 164 °C.

In turn, `O=C1CCC(c2ccc(O)cc2)=NN1` gave a melting point of 157 to 159 °C.

Consider `O=C1Cc2cc(OCCN3CCC(Cc4ccc(F)cc4)CC3)ccc2N1`, for which the melting point was in the range of 149 to 150 °C.

As for `COc1cc2c(cc1OC)Sc1ccccc1C(Cl)C2` (stereo not drawn), the melting point is 155 to 160 °C.

`NCCON=C1c2ccccc2C2CC2c2ccccc21` (stereo not drawn): the melting point was 133 to 134 °C.

`CCN(CCNS(C)(=O)=O)c1ccc(N)c(C)c1`: the melting point lay in the range of 128 to 130 °C.

For `CS(=O)(=O)CC(=O)c1[nH]c2cc(Br)c(Cl)cc2c1-c1ccccc1`, the melting point fell in the range of 224 to 225 °C.

`CC(=O)Nc1ccc(C=CC(=O)O)c(NC(=O)NC(=O)c2cc(F)c(F)cc2Cl)c1` displayed a melting point of 196 °C.

Regarding `Cc1ccc(S(=O)(=O)n2cc(C[C@H]3CCCN3C)c3cc(Br)ccc32)cc1`, the melting point was in the range of 98 to 104 °C.

In turn, `C#CCc1c(C)nc2c(NCc3c(C)cccc3NC(=S)NC(=O)c3ccccc3)cccn12` gave a melting point of 165 to 166 °C.

`OCc1c(Cl)c(Cl)c(Cl)c(Cl)c1Cl` registered a melting point of 195 to 196 °C.

In turn, `CCC(CC)c1ccc(Cl)c2nc3n(c12)CCN3c1ccc(Br)cc1Cl` had a melting point of 165 to 168 °C.

Molecule `Cc1cc(OC(=O)c2ccccc2)cc(C)c1O` displayed a melting point of 140 to 141 °C.

On to `CC(C)C[C@H](NC(=O)OC(C)(C)C)C(=O)N[C@@H](C(C)C)[C@@H](O)c1c(-c2ccccc2)c1=O`, for which the melting point lay in the range of 158 to 161 °C.

`Cc1csc2ncc(C(O)CCc3ccc(Br)cc3)n12` (stereo not drawn) registered a melting point of 175 to 178 °C.

With `CCCCCCCCCCc1c(C(=O)OCC)sc2c1sc1c3sc(C(=O)OCC)c(CCCCCCCCCC)c3sc21`, the melting point fell in the range of 130 to 132 °C.

Consider `N#CC1(c2ccc(F)cc2)C2CC3CC(C2)CC1C3` (stereo not drawn), for which the melting point lay in the range of 81 to 82 °C.

With `COCn1c(C(N)=O)c(OC(C)C)c2cc(OC)ccc21`, the melting point lay in the range of 145 to 147 °C.

On to `CCOc1cc(OCC)nc(N2CCN(Cc3ccc(CNC(C)=O)cc3)CC2)n1`, for which the melting point lay within 119 to 120 °C.

In the case of `COc1cc(C(=O)NS(=O)(=O)c2ccccc2)ccc1Cn1ncc2ccc(NC(=O)CC3CCCC3)cc21`, the melting point was in the range of 167 to 169 °C.

On to `CCOC(=O)C(=O)Nc1ccc(Cl)cc1C(F)(F)F`, for which the melting point lay in the range of 55 to 58 °C.

Consider `COc1cc(C(=O)c2ncc3ccc(NS(C)(=O)=O)cn23)ccc1[N+](=O)[O-]`, for which the melting point is 249 °C.

`O=C(Nc1cccc2c1C(=O)c1c-2n[nH]c1-c1ccc(C(=O)N2CCCC2)s1)NN1CCOCC1` showed a melting point of more than 300 °C.

`CCC(C)OS(=O)(=O)c1ccc(C(=O)c2cc(Cl)ccc2Cl)cc1` (stereo not drawn): the melting point fell in the range of 73 to 74 °C.

Take `CC(=O)c1c(C)nc2c(OCc3c(Cl)ccc(S(=O)(=O)N4CCC[C@H]4C(=O)NCCCNC(=O)c4ccc(C#N)cc4)c3Cl)cccn12`: the melting point fell in the range of 100 to 102 °C.

As for `CC(C)(C)c1cc(N=Nc2ccc(Cl)cc2Cl)c(O)c(C(C)(C)C)c1`, the melting point fell in the range of 164 to 168 °C.

As for `c1ccc(CN2C[C@@H]3SCCC(c4ccccc4)(c4ccccc4)[C@@H]3C2)cc1` (racemic), the melting point was found to be 130 °C.

`CC1Oc2cc(CN3CCN(c4ccncc4)CC3)ccc2NC1=O` (stereo not drawn): the melting point was in the range of 130 to 134 °C.

The molecule `CCN(CC)C(=O)c1ncccc1OC(=S)N(CC)CC` yielded a melting point of 70 to 72 °C.

Turning to `CC(=O)NCCCc1ccc(Cl)c2c1CCO2`, the melting point lay in the range of 76 to 78 °C.

For the molecule `CCOC(=O)c1ccc(NC(=O)C(C)CS)nc1` (stereo not drawn), the melting point lay within 58 to 61 °C.

Consider `CC(C)Cn1c(C(C)O)nc2c(N)nc3ccccc3c21` (stereo not drawn), for which the melting point is 145 to 149 °C.

The molecule `Cc1ccsc1C=C1CCc2cc(OCCc3c[nH]cn3)ccc2C1=O` gave a melting point of 191 to 193 °C.

Regarding `COc1cc2c(cc1OC)CC(=O)N(Cc1cccnc1)C=C2`, the melting point lay within 144 to 146 °C.

`CC(C)NC(=O)c1c(NC(=O)c2cc(C(F)(F)F)nn2-c2ncccc2Cl)ccc2cc[nH]c12` registered a melting point of 240 to 242 °C.

Regarding `COc1ccc(Cn2c(=O)c3ccc([N+](=O)[O-])cc3n(CCCCBr)c2=O)cc1`, the melting point lay in the range of 122 to 123 °C.

Regarding `O=C(O)COc1nn(-c2ccccc2)cc1-c1ccccc1`, the melting point is 172 °C.

`CC(C)(O)c1cnn2c(-c3ccc(F)c(-c4ccccc4C#N)c3)cnc2n1`: the melting point came out at 187 °C.

Consider `CCCCn1cc([N+](=O)[O-])c(=O)c2cnc(-c3ccncc3)nc21`, for which the melting point lay in the range of 240 to 241 °C.

With `Cc1ccc(S(=O)(=O)OCCCn2c(=NC(=O)C(F)(F)F)sc3cc(OC(F)(F)F)ccc32)cc1`, the melting point came out at 139 °C.

`COc1ccc(-c2c(Cl)c(CNC3CC3)nc3sc4c(c23)CCN(Cc2ccccc2)C4)cc1OC` gave a melting point of 131 to 132 °C.

`Cc1cc([N+](=O)[O-])cc(C)c1-c1ccc(-c2c(C)cc([N+](=O)[O-])cc2C)o1`: the melting point fell in the range of 156 to 158 °C.

Consider `Cc1cc(-c2ccc(C(F)(F)F)nc2)nc(-c2ccnc(-c3cccc(S(N)(=O)=O)c3)c2)n1`, for which the melting point worked out at 255 °C.

As to `COC(=O)c1cc(I)c(C(F)(F)F)cc1NC(C)=O`, the melting point was 96 to 98 °C.

`CCOC(=O)c1cc2n(c1)C(C)Nc1ccccc1-2` (stereo not drawn) showed a melting point of 102 to 103 °C.

In turn, `CC(=O)N1CCc2nc(N)nc(-c3ccc(Cl)cc3)c2C1` returned a melting point of 218 to 220 °C.

In the case of `Cc1cccc2c(/C=C/C(=O)O)cc(C(C)C)c(O)c12`, the melting point fell in the range of 122 to 123 °C.

The molecule `CCCc1ccnc(C(=O)c2[nH]c3cc(Cl)ccc3c2CC(=O)O)c1` gave a melting point of 189 to 191 °C.

Take `COc1ccc(S(=O)(=O)[C@H](CCCCc2ccccc2)[C@H](C(=O)O)C(C)C)cc1OC` (relative stereo): the melting point is 173 to 174 °C.

Take `COc1ccc(OC)c(-c2cn(N)c(N)n2)c1`: the melting point fell in the range of 159 to 160 °C.

In the case of `COC(=O)CCC(=O)c1ccc(NS(C)(=O)=O)cc1`, the melting point is 181 to 183 °C.

Values taken from a melting point compilation (Tetko et al.; mined from patent text by program, amines drawn as free bases though some values may be those of a salt).
